As a reminder, the IC50 is the midpoint of a concentration-inhibition curve. Broadly, the Kd is the equilibrium constant for the complex coming apart. In general, EC50 refers to the midpoint of the concentration-response curve.

Assay [1] has as its system ERK 1,2 phosphorylation in HCT116 cells expressing WT BRAF. The experiment in a line: HTRF assay for P-ERK determination in HCT116 cells (paradoxical BRAF activation). In kind it is cell-based. To be noted: for Emax: Homo sapiens, HCT-116, read-out: Percentage of maximum paradox inducing effect from dabrafenib; for EC50: read-out: P-ERK EC50 conc. at which the compound induces p-ERK activation of 50% of that induced by dabrafenib (Positive control paradox inducer) HCT-116, HCT-116 cells, 1 hour drug incubation, not applicable = activation does not reach 50% of dabrafenib maximum. An excerpt:
DMEM no-phenol red medium supplemented with L-glutamine was purchased from (Thermo Fisher Scientific). Fetal bovine serum (FBS) was purchased from VWR. Advanced ERK phospho-T202/Y204 kit-10,000 tests was purchased from Cisbio cat #64AERPEH. A375 and HCT116 cells were originally obtained from ATCC and banked by the Roche repository. 384-well microplates were purchased from Greiner Bio-One, 384-well, (With Lid, HiBase, Low volume cat 784-080).
(§1) A375 is a cellular cancer model expressing V600E mutated BRAF and HCT116 a cellular cancer model expressing WT BRAF. First generation BRAF inhibitors such as e.g. dabrafenib induce a paradox effect on tumour cells in that they inhibit the growth of V600E mutated BRAF cells (such as e.g. A375), while they activate growth in WT BRAF cells (such as e.g. HCT 116). ERK 1,2 phosphorylation (terminal member of the phosphorylation cascade of the MAPK pathway) is hereafter reported as main readout for the activation status of the MAPK pathway. Prior to the assay, A375 and HCT116 cell lines are maintained in DMEM no-phenol red medium supplemented with 10% fetal bovine serum (FBS). Following compound treatment, P-ERK levels are determined by measuring FRET fluorescence signal induced by selective binding of 2 antibodies provided in the mentioned kit (Cisbio cat #64AERPEH) on ERK protein when phosphorylated at Thr202/Tyr204. Briefly, 8000 cells/well in 12 μl media/well are plated in the 384-well plate and left overnight in the incubator (at 37° C. with 5% CO2-humidified atmosphere), the following day the plate is treated in duplicate with test compounds, dabrafenib and PLX8394 (the latter two as controls) at the following final drug concentrations: 10 μM-3 μM-1 μM-0.3 μM-0.1 μM-0.03 μM-0.01 μM-0.003 μM-0.001 μM, all wells are subjected to DMSO normalization and drug incubation occurs for 1 hour. Then, 4 μl of a 4× lysis buffer supplied with the kit are added to the wells, the plate is then centrifuged for 30 second (300 rcf) and incubated on a plate shaker for 1 h at RT.
(§2) At the end of the incubation 4 μL/well of advanced P-ERK antibody solution (prepared according to manufacturer's instruction) followed by 4 μL/well of criptate P-ERK antibody solution (prepared according to manufacturer's instruction) (Cisbio cat #64AERPEH) are added to test wells.
(§3) In order to allow proper data normalization control wells non drug treated reported in the following table are always included in each plate (according to manufacturer's instruction):
(§4) The plate is then centrifuged at 300 rcf for 30 second, sealed to prevent evaporation and incubated overnight in the dark at room temperature.
The plate is then analyzed and fluorescence emission value collected through a Pherastast FSX (BMG Labtech) apparatus at […].
(§5) The obtained fluorescence values are processed according to the formula Ratio=Signal (620 nm)/Signal (625 nm)*10000 then the average of the ratio on the blank is subtracted to all values.
Data are normalized in the case of HCT116 cells (BRAF activation) considering the average of the ratio (blank subtracted) derived by DMSO only treated cells as 0% and by considering the average of the ratio (blank subtracted) derived by dabrafenib treated cells at the concentration which provides the highest signal as 100%. Individual points are fitted with either sigmoidal or bell shape curves, and the percentage of activation compared to maximum dabrafenib-mediated activation is determined. The EC50 is the concentration at which activation equal to 50% of the maximum achieved by dabrafenib is obtained.
The Percentage of Maximum paradox inducing effect from dabrafenib is determined by evaluating the percentage at which the test compound induce its maximum P-ERK signal as percentage of the highest signal produced by dabrafenib within the dose range tested.
On the technique in general: TR-FRET usually uses a lanthanide donor and a delayed reading to cut background.

The test system of assay [2] is ERK 1,2 phosphorylation in A375 cells expressing V600E mutated BRAF. Briefly: HTRF assay for P-ERK determination in A375 cells (BRAF inhibition). The class given is cell-based. Conditions: Homo sapiens, A-375, 1 h, read-out: pERK IC50 A375.
Description: DMEM no-phenol red medium supplemented with L-glutamine was purchased from (Thermo Fisher Scientific). Fetal bovine serum (FBS) was purchased from VWR. Advanced ERK phospho-T202/Y204 kit-10,000 tests was purchased from Cisbio cat #64AERPEH. A375 and HCT116 cells were originally obtained from ATCC and banked by the Roche repository.
as §1, with “First generation BRAF inhibitors such as e.g. dabrafenib induce a paradox effect on tumour cells in that they inhibit the growth of V600E mutated BRAF cells (such as e.g. A375), while they activate growth in WT BRAF cells (such as e.g. HCT 116).” left out, “Following compound treatment, P-ERK levels are determined by measuring FRET fluorescence signal induced by selective binding of 2 antibodies provided in the mentioned kit (Cisbio cat #64AERPEH) on ERK protein when phosphorylated at Thr202/Tyr204.” left out
as §2, §3, §4, §5
Data are normalized in the case of A375 cells (BRAF inhibition) considering the average of the ratio (blank subtracted) derived by DMSO only treated cells as 100% and by considering the average of the ratio (blank subtracted) derived by 10 uM dabrafenib treated cells as 0%. Mean of the normalized points are fitted with sigmoidal curve and IC50 determined.

The next assay deals with BRAF (V600E) (Homo sapiens, UniProt P15056, V600E). Briefly: Kd for RAF kinases: BRAF (V600E). In kind it is binding.
A further assay has as its target BRAF (Homo sapiens, UniProt P15056). The experiment in a line: Kd for RAF kinases: BRAF. In kind it is binding.
The target of the next assay is CRAF (Homo sapiens, UniProt P04049). The experiment in a line: Kd for RAF kinases: CRAF. The class given is binding.

Molecules are shown by their SMILES. Where two headings read alike, the source gives them in different places. Bounds are passed on as bounds.

Chain of BRAF (P15056 whole entry): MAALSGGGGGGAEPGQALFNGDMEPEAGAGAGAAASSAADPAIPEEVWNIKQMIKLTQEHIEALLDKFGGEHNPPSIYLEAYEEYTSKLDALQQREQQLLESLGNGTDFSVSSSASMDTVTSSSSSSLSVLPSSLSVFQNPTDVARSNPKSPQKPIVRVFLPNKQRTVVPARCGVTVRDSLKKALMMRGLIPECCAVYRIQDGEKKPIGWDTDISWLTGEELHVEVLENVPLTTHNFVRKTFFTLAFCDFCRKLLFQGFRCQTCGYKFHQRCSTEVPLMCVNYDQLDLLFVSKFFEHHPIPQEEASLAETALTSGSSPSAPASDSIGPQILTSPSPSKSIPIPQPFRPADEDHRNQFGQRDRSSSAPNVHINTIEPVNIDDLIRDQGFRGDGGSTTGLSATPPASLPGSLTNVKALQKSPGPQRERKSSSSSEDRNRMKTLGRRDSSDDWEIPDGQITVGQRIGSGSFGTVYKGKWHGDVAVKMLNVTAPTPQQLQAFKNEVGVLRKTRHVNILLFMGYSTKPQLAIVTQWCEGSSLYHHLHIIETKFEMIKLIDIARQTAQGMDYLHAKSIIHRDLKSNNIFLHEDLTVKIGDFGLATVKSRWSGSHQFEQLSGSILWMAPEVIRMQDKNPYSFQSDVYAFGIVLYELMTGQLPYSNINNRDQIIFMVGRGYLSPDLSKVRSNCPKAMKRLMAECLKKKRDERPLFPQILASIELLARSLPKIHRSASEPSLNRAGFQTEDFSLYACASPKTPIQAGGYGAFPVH
Chain of CRAF (P04049 whole entry): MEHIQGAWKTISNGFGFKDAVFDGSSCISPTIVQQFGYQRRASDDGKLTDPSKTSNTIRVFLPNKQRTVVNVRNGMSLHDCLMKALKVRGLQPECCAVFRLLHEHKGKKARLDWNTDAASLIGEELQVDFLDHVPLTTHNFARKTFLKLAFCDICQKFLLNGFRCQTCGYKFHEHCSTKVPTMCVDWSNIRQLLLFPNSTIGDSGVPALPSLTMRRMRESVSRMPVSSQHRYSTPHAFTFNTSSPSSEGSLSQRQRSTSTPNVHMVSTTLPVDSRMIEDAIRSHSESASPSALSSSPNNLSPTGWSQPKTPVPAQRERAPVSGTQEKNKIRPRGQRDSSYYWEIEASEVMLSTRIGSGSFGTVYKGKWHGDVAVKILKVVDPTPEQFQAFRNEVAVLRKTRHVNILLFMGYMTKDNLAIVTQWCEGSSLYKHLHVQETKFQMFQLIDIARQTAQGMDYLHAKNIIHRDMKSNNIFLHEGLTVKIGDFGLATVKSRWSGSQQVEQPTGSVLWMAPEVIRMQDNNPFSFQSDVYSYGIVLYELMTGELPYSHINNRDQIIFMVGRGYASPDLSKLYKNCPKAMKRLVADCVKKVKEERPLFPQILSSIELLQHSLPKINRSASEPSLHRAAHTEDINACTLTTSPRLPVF
Chain of BRAF (V600E) (P15056 whole entry V600E): as the sequence (P15056 whole entry) above, with V600E counted along it

Regarding `CCC(C)S(=O)(=O)Nc1cccc(Oc2ccc3ncn(C)c(=O)c3c2)c1C#N` (racemic) [Example 10, (RS)—N-[2-cyano-3-(3-methyl-4-oxo-quinazolin-6-yl)oxy-phenyl]butane-2-sulfonamide], in assay [1], the Emax is 21%. The IC50 in assay [2] turned out to be 8.8 nM. Further, the Kd stood at 14.4 nM at BRAF (V600E), 3.9 nM at BRAF and 6.8 nM on CRAF.

As to `CCN(C)S(=O)(=O)Nc1ccc(F)c(Oc2ccc3ncn(C)c(=O)c3c2)c1C#N` [Example 1, 6-[2-cyano-3-[[ethyl(methyl)sulfamoyl]amino]-6-fluoro-phenoxy]-3-methyl-4-oxo-quinazoline], the Emax in assay [1] was 56%. For the same molecule, the EC50 in assay [1] was greater than 1000 nM. Further, the IC50 in assay [2] came out at 5.5 nM. Moreover, the Kd on BRAF (V600E) (read-out: Kd BRAF (V600E)) came out at 3.4 nM; at BRAF (read-out: Kd BRAF), 1.6 nM; on CRAF, 6.3 nM.

Regarding `CCN(C)S(=O)(=O)Nc1ccc(Cl)c(Oc2ccc3ncn(C)c(=O)c3c2)c1C#N` [Example 2, 6-[6-chloro-2-cyano-3-[[ethyl(methyl)sulfamoyl]amino]phenoxy]-3-methyl-4-oxo-quinazoline], the Emax in assay [1] was 69%. In addition, in assay [1], the EC50 was greater than 1000 nM. Further, the IC50 in assay [2] turned out to be 28.6 nM. Also, the Kd is 36.8 nM at BRAF (V600E), 30.4 nM at BRAF and 5.4 nM on CRAF.

Regarding `Cn1cnc2ccc(Oc3c(Cl)ccc(NS(=O)(=O)N4CC[C@@H](F)C4)c3C#N)cc2c1=O` [Example 3, (3R)—N-[4-chloro-2-cyano-3-(3-methyl-4-oxo-quinazolin-6-yl)oxy-phenyl]-3-fluoro-pyrrolidine-1-sulfonamide], in assay [1], the Emax came out at 61%. Further, in assay [1], the EC50 was greater than 1000 nM. In addition, the IC50 in assay [2] was 14.8 nM. For the same molecule, the Kd at BRAF (V600E) amounted to 6.3 nM; at BRAF it was 10 nM; on CRAF, 9.4 nM.

In the case of `Cn1cnc2ccc(Oc3c(Cl)ccc(NS(=O)(=O)N4CCCC4)c3C#N)cc2c1=O` [Example 4, N-[4-chloro-2-cyano-3-(3-methyl-4-oxo-quinazolin-6-yl)oxy-phenyl]pyrrolidine-1-sulfonamide], the Emax in assay [1] was 65%. For the same molecule, in assay [1], the EC50 amounted to 714 nM. The IC50 in assay [2] is 34.3 nM. Moreover, the Kd at BRAF (V600E) is 4.6 nM; on BRAF it was 2.1 nM; on CRAF, 1.6 nM.

As to `CCN(C)S(=O)(=O)Nc1cccc(Oc2ccc3ncn(C)c(=O)c3c2)c1C#N` [Example 5, 6-[2-cyano-3-[[ethyl(methyl)sulfamoyl]amino]phenoxy]-3-methyl-4-oxo-quinazoline], the Emax in assay [1] was 61%. Besides, the EC50 in assay [1] was greater than 1000 nM. The 50% inhibitory concentration (IC50) in assay [2] is 52.5 nM. Besides, the dissociation constant Kd on BRAF (V600E) turned out to be 32.3 nM; at BRAF it was 10.6 nM; on CRAF, 7.2 nM.

Regarding `Cn1cnc2ccc(Oc3cccc(NS(=O)(=O)N4CCCC4)c3C#N)cc2c1=O` [Example 6, N-[2-cyano-3-(3-methyl-4-oxo-quinazolin-6-yl)oxy-phenyl]pyrrolidine-1-sulfonamide], the Emax in assay [1] was 59%. Besides, the EC50 in assay [1] was determined as 648 nM. Further, the IC50 in assay [2] came to 17.1 nM. The Kd on BRAF (V600E) stood at 2.6 nM; on BRAF it was 1.6 nM; on CRAF, 1.1 nM.

Regarding `Cn1cnc2ccc(Oc3cccc(NS(=O)(=O)N4CC[C@@H](F)C4)c3C#N)cc2c1=O` [Example 7, (3R)—N-[2-cyano-3-(3-methyl-4-oxo-quinazolin-6-yl)oxy-phenyl]-3-fluoro-pyrrolidine-1-sulfonamide], the Emax in assay [1] amounted to 32%. For the same molecule, the IC50 in assay [2] is 26.2 nM. The Kd on BRAF (V600E) amounted to 4.5 nM; on BRAF it was 8.9 nM; at CRAF it was 8.9 nM.

Turning to `Cn1cnc2ccc(Oc3cccc(NS(=O)(=O)C4CCCC4)c3C#N)cc2c1=O` [Example 8, N-[2-cyano-3-(3-methyl-4-oxo-quinazolin-6-yl)oxy-phenyl]cyclopentanesulfonamide], in assay [1], the Emax stood at 63%. In addition, in assay [1], the EC50 came out at 412 nM. For the same molecule, in assay [2], the IC50 stood at 5.3 nM. In addition, the Kd was 7 nM on BRAF (V600E), 3.3 nM at BRAF and 1.8 nM on CRAF.

In the case of `Cn1cnc2ccc(Oc3cccc(NS(=O)(=O)C4CCCCC4)c3C#N)cc2c1=O` [Example 9, N-[2-cyano-3-(3-methyl-4-oxo-quinazolin-6-yl)oxy-phenyl]cyclohexanesulfonamide], the Emax in assay [1] was determined as 44%. In assay [2], the IC50 worked out at 13.9 nM. Moreover, the results for the Kd on BRAF (V600E) (read-out: Kd BRAF (V600E)), at BRAF (read-out: Kd BRAF) and on CRAF were 4 nM, 2.4 nM and 0.8 nM, respectively.

For `CCN(C)S(=O)(=O)Nc1cccc(Nc2ccc3ncn(C)c(=O)c3c2)c1C#N` [Example 11, 6-[2-cyano-3-[[ethyl(methyl)sulfamoyl]amino]anilino]-3-methyl-4-oxo-quinazoline], in assay [1], the Emax was 61%. The EC50 in assay [1] is greater than 1000 nM. In assay [2], the concentration for half-maximal inhibition (IC50) was found to be 19.7 nM. The figures for the Kd at BRAF (V600E) (read-out: Kd BRAF (V600E)), on BRAF (read-out: Kd BRAF) and on CRAF were 26.5 nM, 11.6 nM and 52.3 nM, respectively.

Turning to `Cn1cnc2ccc(Nc3cccc(NS(=O)(=O)N4CC[C@@H](F)C4)c3C#N)cc2c1=O` [Example 12, (3R)—N-[2-cyano-3-[(3-methyl-4-oxo-quinazolin-6-yl)amino]phenyl]-3-fluoro-pyrrolidine-1-sulfonamide], the Emax in assay [1] worked out at 49%. Moreover, in assay [2], the IC50 was found to be 9.2 nM. Further, the Kd at BRAF (V600E) is 7.5 nM; at BRAF, 2 nM; at CRAF, 9.8 nM.

On to `CCN(C)S(=O)(=O)Nc1ccc(Cl)c(Nc2ccc3ncn(C)c(=O)c3c2)c1C#N` [Example 13, 6-[6-chloro-2-cyano-3-[[ethyl(methyl)sulfamoyl]amino]anilino]-3-methyl-4-oxo-quinazoline], for which the Emax in assay [1] came out at 67%. In addition, the half-maximal effective concentration (EC50) in assay [1] was greater than 1000 nM. Moreover, the IC50 in assay [2] was 14.8 nM. The Kd is 10 nM on BRAF (V600E), 4.3 nM at BRAF and 6.8 nM at CRAF.

Source of the values: US20220298145A1, “BRAF INHIBITORS AS PARADOX BREAKERS” (Hoffmann-La Roche Inc., priority 2019, published 2022).
